Experimental findings from patent US20060019270A1, “Global DNA methylation assessment using bisulfite PCR” (Board of Regents The University of Texas System, priority 2004, published 2006) are described below.

Test [1] relates to Alu element methylation in SW48 cells. Description: COBRA (MboI) of Alu repetitive element PCR, SW48 cells treated with DAC. Format: cell-based, human. Particulars: 5 μM DAC for three days, decrease from 28%. As for the experimental part:
(§1) Hct116, RKO and SW48, colon cancer cell lines (American Type Culture Collection, Manassas, Va.), were cultured using standard methods. Cells were treated with 5 μM 5-aza-2′deoxycytidine (DAC) for three days prior to being harvested. DNA from cell lines and peripheral blood leukocytes was extracted using phenol-chloroform extraction methods well known to one with skill on the art.
(§2) Bisulfite modification of genomic DNA is known in the art (see Clark et. al, 1994). In brief, 1.5 μg prepared 10 mM hydroquinone (Sigma) and 520 μl of 3M Sodium Bisulfite (Sigma) at pH=5.0 were added and mixed. The samples were overlayed with mineral oil to prevent evaporation and incubated at 50° C. for 16 hours. […] Bisulfite treated DNA was stored at −20° C. until ready for use.
(§3) Methylation analysis of Alu repetitive elements was performed initially by the COBRA assay. […] The digested PCR product was then separated by polyacrylamide gel electrophoresis or the PCR products were quantitated using a capillary electrophoresis system, an Agilent 2100 Bioanalyzer (Agilent Technologies, Palo Alto, Calif.).
(§4) In order to test whether Alu element […] LINE-1 methylation could approximate global methylation, COBRA, restriction digestion of the repetitive element PCR product, was used to quantitate DNA methylation in cell lines treated with 5-aza-2′deoxycytidine (DAC) (FIG. 3). […]

Test [2] deals with LINE-1 methylation in RKO cells. Description: COBRA (HinfI) of LINE-1 PCR, RKO cells treated with DAC. Format: cell-based, human. Particulars: 5 μM DAC for three days, decrease from 67%. As for the experimental part:
as §1
(§5) Bisulfite modification of genomic DNA is known in the art (see Clark et. al, 1994). In brief, 1.5 μg prepared 10 mM hydroquinone (Sigma) and 520 μl of 3M Sodium Bisulfite (Sigma) at pH=5.0 were added and mixed. The samples were overlayed with mineral oil to prevent evaporation and incubated at 50° C. for 16 hours. The bisulfite treated DNA was isolated using Wizard DNA Clean-Up System (Promega). The DNA was eluted by 50 μl of warm water and 5.5 μl of 3M NaOH were added for 5 minutes. The DNA was ethanol precipitated with glycogen as a carrier and resuspended in 20 μl water. Bisulfite treated DNA was stored at −20° C. until ready for use. […]
(§6) In order to test whether Alu element […] LINE-1 methylation could approximate global methylation, COBRA, restriction digestion of the repetitive element PCR product, was used to quantitate DNA methylation in cell lines treated with 5-aza-2′deoxycytidine (DAC) (FIG. 3). […] Thus both assays reliably detected inhibition of methylation induced by DAC. […]

Test [3] has as its system Alu element methylation in RKO cells. Description: COBRA (MboI) of Alu repetitive element PCR, RKO cells treated with DAC. Format: cell-based, human. Particulars: 5 μM DAC for three days, decrease from 26%. As for the experimental part:
as §1, §2, §3, §4

Test [4] concerns leukemia (AML/MDS, CML/CMML) patients. Description: Clinical response in the High Dose and Low Dose decitabine studies. The class given is in vivo, human. As for the experimental part: FIG. 6 illustrates treatment schema of patient samples. Patients were treated as part of a Phase II study of Decitabine which was given initially a dose of 90 mg/m2 twice daily for 5 consecutive days. This dose was later decreased to 50 mg/m2 twice daily due to toxicity. In this “High” Dose Study a total dose of 500-900 mg/m2 of decitabine was given over a 5 day period. Peripheral blood specimens were collected on day 0 or 1 prior to treatment, days 2-4 during treatment, and on days 5 or 6 after the completion of treatment. In the second study, a Phase I strategy of “Low” Dose Decitabine was used. This study was designed to take advantage of Decitabine's demethylating properties. Escalating doses of Decitabine of 5, 10, 15 and 20 mg/m2 were given as ten daily doses over a two week period. The total dose delivered was only 50 to 200 mg/m2 over a 14 day period. Peripheral blood specimens were collected on day 0 or 1 prior to treatment, and during days 2-14 of treatment;
Patient samples were collected from patients treated as part of two clinical studies using 5-aza-2′deoxycytidine (decitabine) as a single agent. The first study treated patients with 50-90 mg/m2 of decitabine twice daily for 5 consecutive days (See FIG. 8). The second study was a phase I study which attempted to capitalize on the demethylating properties of decitabine by using a lower dose of decitabine, 5-20 mg/m^2 once daily, for a longer period of time, 10 days over a two week period (See FIG. 8). Peripheral blood samples were collected prior to, during and after treatment. Donation of blood samples for laboratory studies was voluntary and […] were collected from 41 patients participating in both studies (See Table 4). Due to competing protocols and the availability of patients at the time of the two respective studies the majority of the patients enrolled on DM−, the “High-Dose” study were CML patients and the majority of the patients enrolled on DM−, the “Low-Dose” study were AML or High Risk MDS patients.
Donation of peripheral blood for laboratory analysis was voluntary, and only some of the patients enrolled on the two studies participated. A total of 134 samples were collected for analysis (52 in the High Dose Study and 82 in the Low Dose Study). The majority of patients treated in the High Dose Study were CML patients, however, the majority of patients treated in the Low Dose Study were AML or High risk MDS patients.

Test [5] concerns LINE-1 methylation in Hct116 cells. Description: COBRA (HinfI) of LINE-1 PCR, Hct116 cells treated with DAC. Particulars: 5 μM DAC for three days, 77% prior to treatment. The class given is cell-based, human. As to the method:
as §1, §5, §6

The mark [6] stands for this setting: Total of both studies, 41 patients.

Structures are written as SMILES.

As to `Nc1ncn([C@H]2C[C@H](O)[C@@H](CO)O2)c(=O)n1` [decitabine, 5-aza-2′-deoxycytidine], the “Alu methylation after treatment with DAC” value in test [1] worked out at 27%. Also, the “LINE-1 methylation after treatment with DAC” value was 29% in test [2] and 17% in test [5]. Further, the “Alu element methylation after treatment with DAC” value in test [3] is listed as 21%. In addition, the “Response Rate” value in test [4] (High Dose Study, 18 patients) turned out to be 39%; in test [4] (Low Dose Study, 23 patients), 35%; in test [4] (setting [6]), 34%. Also, the “Treatment Response CR/PR (patients)” value in test [4] (High Dose Study, 18 patients) was 7; in test [4] (Low Dose Study, 23 patients), 7; in test [4] (setting [6]), 14. Moreover, the “Treatment Response No Response (patients)” value was determined as 11 in test [4] (High Dose Study, 18 patients); 13 in test [4] (Low Dose Study, 23 patients); 24 in test [4] (setting [6]).
